Experimental data from US6426360B1, “4,5-substituted imidazolyl compounds for the treatment of inflammation” (G D Searle & Co., priority 1994, dated 2002).

How the values were obtained:
Human COX II = target: T1, Human COX II (Homo sapiens, UniProt P35354); test: COX II activity in vitro (PGE2 ELISA, recombinant enzyme); format: biochemical; details: arachidonic acid 10 μM, pre-incubation 10-20 minutes; read-out: Human COX II ID50
T1 construct: A 2.0 kb fragment containing the coding region of either human or murine COX-I or human or murine COX-II; made in house; host or cells: SF9 insect cells (recombinant baculovirus, transfer vector pVL1393)
T1 sequence (P35354 18-604): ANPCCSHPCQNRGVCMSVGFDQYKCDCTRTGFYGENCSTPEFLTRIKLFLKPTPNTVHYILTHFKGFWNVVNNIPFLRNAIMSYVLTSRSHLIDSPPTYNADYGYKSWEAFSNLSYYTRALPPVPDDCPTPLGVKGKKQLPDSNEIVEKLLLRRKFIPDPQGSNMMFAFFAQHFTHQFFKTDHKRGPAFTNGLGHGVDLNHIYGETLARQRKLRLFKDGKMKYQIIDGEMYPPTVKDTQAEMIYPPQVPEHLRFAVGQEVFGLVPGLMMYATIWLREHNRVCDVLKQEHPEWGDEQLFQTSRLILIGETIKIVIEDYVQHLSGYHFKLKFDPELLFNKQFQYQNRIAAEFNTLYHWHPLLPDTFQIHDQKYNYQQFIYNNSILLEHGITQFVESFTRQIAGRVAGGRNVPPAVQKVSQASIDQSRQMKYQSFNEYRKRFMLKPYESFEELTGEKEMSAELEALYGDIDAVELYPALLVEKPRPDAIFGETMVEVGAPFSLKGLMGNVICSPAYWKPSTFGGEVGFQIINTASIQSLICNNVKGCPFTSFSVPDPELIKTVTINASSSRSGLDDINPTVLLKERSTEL
Protocol: The COX II inhibition activity of the compounds of this invention illustrated in the Examples was determined by the following methods.
(§1) A 2.0 kb fragment containing the coding region of either human or murine COX-I or human or murine COX-II was cloned into a BamH1 site of the baculovirus transfer vector pVL1393 (Invitrogen) to generate the baculovirus transfer vectors for COX-I and COX-II in a manner similar to the method of D. R. O'Reilly et al (Baculovirus Expression Vectors: A Laboratory Manual (1992)). Recombinant baculoviruses were isolated by transfecting 4 μg of baculovirus transfer vector DNA into SF9 insect cells ([…]) along with 200 ng of linearized baculovirus plasmid DNA by the calcium phosphate method. See M. D. Summers and G. E. Smith, A Manual of Methods for Baculovirus Vectors and Insect Cell Culture Procedures, Texas Agric. Exp. Station Bull. 1555 (1987). Recombinant viruses were purified by three rounds of plaque purification and high titer (10E7-10E8 pfu/ml), stocks of virus were prepared. For large scale production, SF9 insect cells were infected in 10 liter fermentors (0.5×10^6/ml) with the recombinant baculovirus stock such that the multiplicity of infection was 0.1. After 72 hours the cells were centrifuged and the cell pellet homogenized in Tris/Sucrose (50 mM: 25%, pH 8.0) containing 1% 3-[(3-cholamidopropyl)dimethylammonio]-1-propanesulfonate (CHAPS). The homogenate was centrifuged at 10,000×G for 30 minutes, and the resultant supernatant was stored at −80° C. before being assayed for COX activity.
(§2) COX activity was assayed as PGE2 formed/μg protein/time using an ELISA to detect the prostaglandin released. CHAPS-solubilized insect cell membranes containing the appropriate COX enzyme were incubated in a potassium phosphate buffer (50 mM, pH 8.0) containing epinephrine, phenol, and heme with the addition of arachidonic acid (10 μM). Compounds were pre-incubated with the enzyme for 10-20 minutes prior to the addition of arachidonic acid. Any reaction between the arachidonic acid and the enzyme was stopped after ten minutes at 37° C./room temperature by transferring 40 μl of reaction mix into 160 μl ELISA buffer and 25 μM indomethacin. The PGE2 formed was measured by standard ELISA technology (Cayman Chemical).

Human COX I = target: T2, Human COX I (Homo sapiens, UniProt P23219); test: COX I activity in vitro (PGE2 ELISA, recombinant enzyme); format: biochemical; details: arachidonic acid 10 μM, pre-incubation 10-20 minutes; read-out: Human COX I ID50
T2 construct: A 2.0 kb fragment containing the coding region of either human or murine COX-I or human or murine COX-II; made in house; host or cells: SF9 insect cells (recombinant baculovirus, transfer vector pVL1393)
T2 sequence (P23219 24-599): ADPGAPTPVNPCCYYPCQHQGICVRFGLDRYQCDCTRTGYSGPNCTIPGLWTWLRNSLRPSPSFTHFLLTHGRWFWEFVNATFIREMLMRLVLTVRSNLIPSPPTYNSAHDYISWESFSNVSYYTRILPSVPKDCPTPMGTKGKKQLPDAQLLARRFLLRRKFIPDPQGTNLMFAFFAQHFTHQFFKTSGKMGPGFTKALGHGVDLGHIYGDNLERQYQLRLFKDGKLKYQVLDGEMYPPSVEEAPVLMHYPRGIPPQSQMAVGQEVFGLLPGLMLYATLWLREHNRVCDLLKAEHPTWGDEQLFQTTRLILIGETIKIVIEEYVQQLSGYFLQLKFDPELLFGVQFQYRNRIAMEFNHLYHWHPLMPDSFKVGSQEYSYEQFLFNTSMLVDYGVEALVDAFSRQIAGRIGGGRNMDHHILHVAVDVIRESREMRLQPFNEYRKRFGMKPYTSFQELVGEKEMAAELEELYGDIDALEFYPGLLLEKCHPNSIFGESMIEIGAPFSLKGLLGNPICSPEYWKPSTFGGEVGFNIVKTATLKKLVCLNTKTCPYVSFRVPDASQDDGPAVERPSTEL
Protocol: as §1, §2

Row | Compound | IC50 (Human COX II) [µM] | IC50 (Human COX I) [µM] | melting point [°C]
1 | COCc1nc(-c2ccc(S(C)(=O)=O)cc2)c(-c2ccc(F)cc2)[nH]1 [Example 79, 5-(4-Fluorophenyl)-2-(methoxymethyl)-4-[4-(methylsulfonyl)-phenyl]-1H-imidazole] | 8.3 | > 100 | 169
2 | CC(=O)c1nc(-c2ccc(F)cc2)c(-c2ccc(S(C)(=O)=O)cc2)[nH]1 [Example 83, 1-[4-(4-Fluorophenyl)-5-[4-(methylsulfonyl)phenyl]-1H-imidazol-2-yl] ethanone] | 4.3 | > 100 | 215 to 217
3 | CS(=O)(=O)c1ccc(-c2[nH]c(C(=O)C(F)(F)F)nc2-c2ccc(F)cc2)cc1 [Example 89] | 5.3 | > 100 | 291.7
4 | COC(C)c1nc(-c2ccc(F)cc2)c(-c2ccc(S(C)(=O)=O)cc2)[nH]1 (stereo not drawn) [Example 94, 4-(4-Fluorophenyl)-2-(1-methoxyethyl)-5-[4-(methyl-sulfonyl)phenyl]-1H-imidazole] | 6.4 | > 100 | 212

Compounds with a lower IC50 (Human COX II), results first:

Row | IC50 (Human COX II) [µM] | IC50 (Human COX I) [µM] | melting point [°C] | Compound
5 | 1.7 | > 100 | 211 to 213 | CS(=O)(=O)c1ccc(-c2[nH]c(S(=O)(=O)Cc3ccccc3)nc2-c2ccc(F)cc2)cc1 [Example 51, 4-(4-Fluorophenyl)-5-[4-(methylsulfonyl)phenyl]-2-[(phenylmethyl)sulfonyl]-1H-imidazole]
6 | 0.3 | > 100 | 255 to 257 | CSc1ccc(-c2[nH]c(C(F)(F)F)nc2-c2ccc(S(C)(=O)=O)cc2)cc1Cl [Example 55, 5-[3-Chloro-4-(methylthio)phenyl]-4-[4-(methylsulfonyl)phenyl]-2-(trifluoromethyl)-1H-imidazole]
7 | 3 | > 100 | 206 to 207 | CS(=O)(=O)c1ccc(-c2nc(C(F)(F)F)[nH]c2C2CCCCCC2)cc1 [Example 72, 5-[4-Cycloheptyl)-4-[4-(methylsulfonyl)phenyl]-2-(trifluoromethyl)-1H-imidazole]
8 | 0.4 | > 100 | 227 to 231 | CS(=O)(=O)c1ccc(-c2[nH]c(C(=O)CCc3ccccc3)nc2-c2ccc(F)cc2)cc1 [Example 85]
9 | 3.9 | > 100 | 126 to 130 | CS(=O)(=O)c1ccc(-c2[nH]c(C(O)C(F)(F)F)nc2-c2ccc(F)cc2)cc1 (stereo not drawn) [Example 90, 4-(4-Fluorophenyl)-5-(4-(methylsulfonyl)phenyl]-a-(trifluoromethyl)-1H-imidazole-2-methanol]
10 | 2.4 | > 100 | 211 | CC(F)(F)c1nc(-c2ccc(F)cc2)c(-c2ccc(S(C)(=O)=O)cc2)[nH]1 [Example 95, 2-(1,1-Difluoroethyl)-4-(4-fluorophenyl)-5-[4-(methyl-sulfonyl)phenyl]-1H-imidazole]
